Like-named read-outs stand apart in the source and are kept apart here.
What was measured:
[1] = tested on: 80S14 (p21-deficient) cells; experiment: Determination of selectivity of compounds for p21-/- cells: IC50 in 80S14 cells (SRB); format: cell-based, human
Experimental: • 1. 80S14 (p21-deficient) cells were cultured in RPMI 1640 medium (Gibco/Invitrogen Life technologies) supplemented with 10% fetal bovine serum (FBS, Gibco) and 10 μg/ml gentamycin (Gibco). Cells were maintained at 37° C. under 7% CO2. • 2. Cells were plated at 6×10^4/ml (0.2 ml/well; 12,000 cells/well) in 96-well microtiter plates (Falcon or Corning/Costar) and incubated at 37° C. overnight (18-24 hours). • 3. 2-5 μl of the test agent-[200 μg/ml stock in 20% DMSO/20 mM HEPES, pH 7.5 (Gibco)] was added to each well to achieve a final concentration of 2-5 μg/ml. Cells were incubated with the test compounds for 5 days at 37° C. • 4. Surviving cells were fixed with 50 μl 50% trichloroacetic acid (Sigma; 10% final concentration) for 1 hour at 4° C. • 5. Plates were rinsed twice with water (0.3 ml per wash using MRD8 robot), and allowed to dry. • 6. Sulforhodamine B (SRB) (Sigma; 0.4% in 1% acetic acid, 50 μl per well; MRD8 robot) was added and plates kept at room temperature for 10 minutes. • 7. Excess dye was removed by washing with 1% acetic acid (3 times, 0.3 ml per wash; MRD8 robot) and allowed to dry. • 8. The dye was solubilized in Tris base (Sigma; 10 mM, 150 μl per well). Plates were kept at room temperature for 30 minutes to allow the dye to diffuse. • 9. Absorbance was measured at 540 nm. • 10. The percentage of cells surviving drug treatment relative to control wells (no drug) was determined. • 11. The difference in % cell survival between the two cell lines was calculated. • 12. Compounds producing a difference score of >50 were considered to be selective for the p21-deficient cells and were evaluated further. Determination of Selectivity of Compounds for p21−/− Cells: • 1. 80S14 cells were cultured as described above. • 2. Cells were seeded in 96-well microtiter plates at 12,000 cells/well (either 0.15 ml/well of 8×10^4 cells/ml suspension, or 0.2 ml/well of 6×10^4 cells/ml suspension). Plates were incubated at 37° C. overnight (18-24 hours). • 3. Serial dilutions of the test agent were added to each well. Dilutions were prepared either in 40% DMSO/20% methanol/20 mM HEPES, pH 7.5 (Gibco) or directly in growth medium. One of two dose ranges were used: 5 pM to 50 μM or 170 pg/ml to 10 μg/ml. Cells were incubated with the test compounds for 5 days at 37° C. • 4. Surviving cells were fixed with 50 μl 50% trichloroacetic acid (Sigma; 10% final concentration) for 1 hour at 4° C. • 5. Plates were rinsed extensively in water, and allowed to dry. • 6. Sulforhodamine B (Sigma; 0.4% in 1% acetic acid, 70 μl per well) was added and plates kept at room temperature for 10 minutes. • 7. Excess dye was removed by washing 5 times with 1% acetic acid and plates were allowed to dry. • 8. The dye was solubilized in Tris base (Sigma; 10 mM, 150 μl per well). Plates were placed on a titer plate shaker (Lab Line Instruments) for 5 minutes to allow the dye to diffuse. • 9. Absorbance was measured at 560 nm.
10. The drug concentration which inhibits cell proliferation by 50% relative to untreated controls (IC50) was determined from cytotoxicity curves.

LoVo Colon cell line = experiment: Cytotoxicity assay using LoVo colon cell line (SRB, IC50); format: cell-based; details: read-out: Inhibition of LoVo
Experimental: Cytotoxicity Assay Using LoVo Colon Cell Line: • 1. LoVo Colon cell lines was cultured in RPMI 1640 medium (Gibco/Invitrogen Life Sciences) supplemented with 10% fetal bovine serum (FBS, Gibco) and 50 μg/ml gentamicin (Gibco). Cells were maintained at 37° C. under 7% CO2. • 2. Cells were seeded in 96-well microtiter plates (Corning/Costar) in a volume of 0.15 ml of growth medium (4000 cells/well). Plates were incubated at 37° C. overnight (18-24 hours). • 3. Serial dilutions of the test agent were added to each well. Dilutions were prepared in growth medium. One of two dose ranges was used: 5 pM to 20 μM or […] to 10 μg/ml. Cells were incubated with the test compounds for 4 days at 37° C. • 4. Surviving cells were processed using the SRB asay, as described above.
5. The drug concentration that inhibits cell proliferation by 50% relative to untreated controls (IC50) was determined from cytotoxicity curves using the LSW Toolbox graphing application.

[2] = 80S14 (p21-deficient) cells, 5 days at 37° C., SRB, read-out: IC50 for 80S14
[3] = LoVo colon cells, 4 days at 37° C., SRB
[4] = Homo sapiens, 96 h, LoVo colon cells, 4 days at 37° C., SRB
[5] = Cellular activity in 80S14 (p21-deficient) cells, SRB, class symbols, read-out: IC50 for 80S14
[6] = Cellular activity in LoVo cell, 4 days incubation, SRB assay
[7] = Homo sapiens, 120 h, 80S14 (p21-deficient) cells, 5 days at 37° C., SRB, read-out: IC50 for 80S14

| Compound | IC50 [1, 2] [µM] | IC50 [1, 5] [µM] | IC50 (LoVo Colon cell line; [6]) [nM] | also measured |
| --- | --- | --- | --- | --- |
| C#CCOC(=O)Nc1cccc(-c2ccnc3c(C(=O)c4cccs4)cnn23)c1 [Example 13, prop-2-ynyl 3-[3-(thien-2-ylcarbonyl)pyrazolo[1,5-a]pyrimidin-7-yl]phenylcarbamate] | – | – | – | IC50 ([1]; Homo sapiens, 80S14, 120 h, read-out: IC50 for 80S14 (μM)): < 1 µM; IC50 (LoVo Colon cell line; Homo sapiens, LoVo, 96 h): 100 to 1000 nM |
| O=C(Nc1cccc(-c2ccnc3c(C(=O)c4cccs4)cnn23)c1)OCC1CCCCC1 [Example 148, Cyclohexylmethyl 3-[3-(thien-2-ylcarbonyl)pyrazolo[1,5-a]pyrimidin-7-yl]phenylcarbarmate] | < 1 | – | – | IC50 (LoVo Colon cell line; [3]): < 100 nM |
| CCCCCNC(=O)Nc1cccc(-c2ccnc3c(C(=O)c4cccs4)cnn23)c1 [Example 138, N-pentyl-N′-{3-[3-(thien-2-ylcarbonyl)pyrazolo[1,5-a]pyrimidin-7-yl]phenyl}urea] | – | – | – | IC50 (LoVo Colon cell line; [4]): < 100 nM |
| COCCN(CCOC)C(=O)Nc1cccc(-c2ccnc3c(C(=O)c4cccs4)cnn23)c1 [Example 141, N,N-bis(2-methoxyethyl)-N′-{3-[3-(thien-2-ylcarbonyl)pyrazolo[1,5-a]pyrimidin-7-yl]phenyl}urea] | – | – | – | IC50 (LoVo Colon cell line; [4]): 1000 to 20000 nM |
| CC(C)NC(=S)Nc1ccc(Cl)c(-c2ccnc3c(C(=O)c4cccs4)cnn23)c1 [Example 237, N-{4-Chloro-3-[3-(thien-2-ylcarbonyl)pyrazolo[1,5-a]pyrimidin-7-yl]phenyl}-N′-isopropylthiourea] | – | – | – | IC50 ([1]; Homo sapiens, Cellular activity in 80S14 (p21-deficient) cells, SRB, class symbols, read-out: IC50 for 80S14): 1 to 10 µM; IC50 (LoVo Colon cell line; Homo sapiens, 96 h, Cellular activity in LoVo cell, 4 days incubation, SRB assay): 100 to 1000 nM |
| CC(CCNc1cccc(-c2ccnc3c(C(=O)c4cccs4)cnn23)c1)CC(C)(C)C (centres unmarked) [Example 321, Thien-2-yl(7-{3-[(3,5,5-trimethylhexyl]amino]phenyl}pyrazolo[1,5-a]pyrimidin-3-yl](thien-2-yl)methanone] | – | 1 to 10 | 100 to 1000 | – |
| (7-{3-[1-(Pyridin-2-ylmethyl)-1H-pyrazol-3-yl]phenyl}pyrazolo[1,5-a]pyrimidin-3-yl)(thien-2-yl)methanone [Example 406] | – | < 1 | < 100 | – |
| {7-[3-(1H-Pyrazol-3-yl)phenyl]pyrazolo[1,5-a]pyrimidin-3-yl}(thien-2-yl)methanone [Example 403] | – | < 1 | < 100 | – |
| (7-{3-[2-(2-Hydroxyethyl)-2H-tetraazol-5-yl]phenyl}pyrazolo[1,5-a]pyrimidin-3-yl)(thien-2-yl)methanone [Example 402] | – | < 1 | 100 to 1000 | – |
| C=C(C)C(=O)Nc1cccc(-c2ccnc3c(C(=O)c4cccs4)cnn23)c1 [Example 36, 2-methyl-N-{3-[3-(thien-2-ylcarbonyl)pyrazolo[1,5-a]pyrimidin-7-yl]phenyl} acrylamide] | < 1 | – | – | IC50 (LoVo Colon cell line; [3]): < 100 nM |
| tert-Butyl 4-[2-oxo-2-({3-[3-(thien-2-ylcarbonyl)pyrazolo[1.5-a]pyrimidin-7-yl]phenyl}amino)ethyl]piperidine-1-carboxylate [Example 286] | – | < 1 | < 100 | – |
| {7-[3-(1-Ethyl-1H-pyrazol-3-yl)phenyl]pyrazolo[1,5-a]pyrimidin-3-yl}(thien-2-yl)methanone [Example 407] | – | 1 to 10 | 100 to 1000 | – |
| (7-{3-[1-(Cyclobutylmethyl)-1H-pyrazol-3-yl]phenyl}pyrazolo[1,5-a]pyrimidin-3-yl)(thien-2-yl)methanone [Example 404] | – | < 1 | < 100 | – |
| 3-Methyl-N-{^5-[3-(thien-2-ylcarbonyl)pyrazolo[1,5-a]pyrimidin-7-yl]thien-2-yl}butanamide [Example 240] | – | 1 to 10 | 1000 to 20000 | – |
| CCCC(Cl)CC(=O)Nc1cccc(-c2ccnc3c(C(=O)c4cccs4)cnn23)c1 (centres unmarked) [Example 121, 3-chloro-N-{3-[3-(thien-2-ylcarbonyl)pyrazolo[1,5-a]pyrimidin-7-yl]phenyl}hexanamide] | – | – | – | IC50 [1, 7]: < 1 µM |
| C/C=C/C(=O)Nc1cccc(-c2ccnc3c(C(=O)c4cccs4)cnn23)c1 [Example 129, (2E)-N-{3-[3-(thien-2-ylcarbonyl)pyrazolo[1,5-a]pyrimidin-7-yl]phenyl}but-2-enamide] | – | – | – | IC50 [1, 7]: 1 to 10 µM |
| C[C@H](N)C(=O)Nc1cccc(-c2ccnc3c(C(=O)c4cccs4)cnn23)c1 [Example 60, N-1-{3-[3-(thien-2-ylcarbonyl)pyrazolo[1,5-a]pyrimidin-7-yl]phenyl}-L-alaninamide] | 1 to 10 | – | – | – |
| O=C(Nc1cccc(-c2ccnc3c(C(=O)c4cccs4)cnn23)c1)c1ccc(Cl)cc1 [Example 71, 4-chloro-N-{3-[3-(thien-2-ylcarbonyl)pyrazolo[1,5-a]pyrimidin-7-yl]phenyl}benzamide] | – | – | – | IC50 [1, 7]: 1 to 10 µM |
| O=C(c1cccs1)c1cnn2c(-c3cccc(NC(=O)C(Cl)(Cl)Cl)c3)ccnc12 [Example 38, 2,2,2-trichloro-N-{3-[3-(thien-2-ylcarbonyl)pyrazolo[1,5-a]pyrimidin-7-yl]phenyl} acetamide] | 1 to 10 | – | – | – |
| N,N′-Diethyl-3-[3-(2-thienylcarbonyl)-pyrazolo[1,5-a]pyrimidin-7-yl]-benzamide [Example 181] | – | 10 to 50 | – | – |
| CCS(=O)(=O)Nc1cccc(-c2ccnc3c(C(=O)c4cccs4)cnn23)c1 [Example 21, N-{3-[-(thien-2-ylcarbonyl)pyrazolo[1,5-a]pyrimidin-7-yl]phenyl}ethanesulfonamide] | < 1 | – | – | – |
| CN(C)CCNC(=O)Nc1cccc(-c2ccnc3c(C(=O)c4cccs4)cnn23)c1 [Example 134, N-[2-(dimethylamino)ethyl]-N′-{3-[3-(thien-2-ylcarbonyl)pyrazolo[1,5-a]pyrimidin-7-yl]phenyl}urea] | – | – | – | IC50 [1, 7]: 10 to 50 µM |
| CCCCCNC(=O)NCC(=O)Nc1cccc(-c2ccnc3c(C(=O)c4cccs4)cnn23)c1 [Example 118, N-2-[(pentylamino)carbonyl]-N-1-{3-[3-(thien-2-ylcarbonyl)pyrazolo[1,5-A]pyrimidin-7-yl]phenyl}glycinamide] | 10 to 50 | – | – | – |
| CC(C)[C@H](N)C(=O)Nc1cccc(-c2ccnc3c(C(=O)c4cccs4)cnn23)c1 [Example 65, N-1-{3-[3-(thien-2-ylcarbonyl)pyrazolo[1,5-a]pyrimidin-7-yl]phenyl}-L-valinamide] | 1 to 10 | – | – | – |
| CCCCCCCCCCC(=O)Nc1cccc(-c2ccnc3c(C(=O)c4cccs4)cnn23)c1 [Example 124, N-{3-[3-(thien-2-ylcarbonyl.)pyrazolo[1,5-a]pyrimidin-7-yl]phenyl}undecanamide] | 10 to 50 | – | – | – |
| C[C@H](NC(=O)Nc1cccc(-c2ccnc3c(C(=O)c4cccs4)cnn23)c1)c1ccccc1 [Example 9, N-[(1S)-1-phenylethyl]-N′-{3-[3-(thien-2-ylcarbonyl)pyrazolo [1,5-a]pyrimidin-7-yl]phenyl}urea] | – | – | – | IC50 [1, 7]: 1 to 10 µM |

Reference: patent US20060063785A1, “Substituted pyrazolo[1,5-a] pyrimidines and process for making same” (priority 2004, published 2006)
